Source: US20210138080A1, “CONJUGATES” (GLYKOS BIOMEDICAL OY, priority 2018, published 2021)
“Also recorded” adds a separate entry of the source. Like-named read-outs stand apart in the source and are kept apart here.

Experiments:
Galectin-3 [1] = molecular target: T1, Galectin-3 (Homo sapiens, UniProt P17931); conditions: SKOV-3 cells, 2 μM 33DFTG for 3 days; Galectin-3 10 μg/ml; control treatment 1940
Protocol: (§1) After the incubation, cells were stained with Alexa Fluor 488-conjugated human recombinant Galectin-1, and Alexa Fluor 488-conjugated human recombinant Galectin-3 (both from Abcam, Cambridge, United Kingdom; and both at 10 μg/ml) for 45 minutes at +4° C. Cells were washed and stored on ice in the dark until analysed by FACSAriaII flow cytometer.

Galectin-1 [2] = molecular target: T2, Galectin-1 (Homo sapiens, UniProt P09382); assay: Alexa Fluor 488-Galectin-1 binding to SKOV-3 cells by FACS; assay type: cell-based
T2 construct: purchased Abcam, Cambridge, United Kingdom
T2 sequence (P09382 whole entry): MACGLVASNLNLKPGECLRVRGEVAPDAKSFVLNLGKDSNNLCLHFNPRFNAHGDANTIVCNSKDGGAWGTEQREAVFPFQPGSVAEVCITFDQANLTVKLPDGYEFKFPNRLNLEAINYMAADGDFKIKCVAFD
Protocol: as §1

egg embryos = assay: in vivo CAM trial: embryo viability (toxicity)
Protocol: (§2) The study was performed by Inovotion SAS (La Tronche, France). Fertilized chicken eggs were incubated at 37.5° C. with 50% relative humidity for 9 days (E9), when the chorioallantoic membrane (CAM) was dropped down by drilling a small hole through the eggshell into the air sac, and a 1 cm^2 window was cut in the eggshell above the CAM. The NCI-N87 cell line was cultivated in RPMI-1640 medium supplemented with 10% FBS and 1% penicillin/streptomycin. On day E9, cells were detached by trypsin, washed with complete medium and suspended in graft medium. An inoculum of 2 million cells was added onto the CAM of each egg. […] Living grafted eggs were randomized into groups and were then treated on day E10, E11.5, E13, E14.5 and E17 (five doses) by dropping 100 μl of vehicle (PBS) and compounds (alone or in combination) onto the tumor. On day 18 (E18) the upper portion of the CAM was removed, washed in PBS and then directly transferred in PFA (fixation for 48 h). The tumors were then carefully cut away from normal CAM tissue and weighed. Eggs were checked at each treatment time, or at least every two days, for viability during the study. At the end of the study, the number of dead embryos was counted and combined with the observation of eventual visible macroscopic abnormalities (observation done during the sample collection) to evaluate the toxicity.

Galectin-1 [3] = molecular target: T2, Galectin-1; assay: Alexa Fluor 488-Galectin-1 binding to HSC-2 cells by FACS; assay type: cell-based
Protocol: as §1
(§3) In parallel, untreated cells were cultured in normal cell culture medium. For flow cytometry analysis, cells were detached with trypsin, washed, and stained with AlexaFluor488-conjugated Galectin-1 and Galectin-3 proteins as above. FACS was performed as above.

Galectin-3 [4] = molecular target: T1, Galectin-3; conditions: HSC-2 cells, 2 μM 33DFTG for 2 days; control treatment 1247
Protocol: as §1, §3

[5] = system: NCI-N87 cancer cell line tumors; assay: in vivo trial, cancer cell xenografts on chicken egg chorioallantoic membrane (CAM): tumor weight; conditions: for Mean tumor size: five doses E10-E17, 1.5 mg/kg pembrolizumab, 1.8 mg/kg 33DFTG, weighed E18, PBS control 30.6
Protocol: as §2

T1 sequence (P17931 whole entry): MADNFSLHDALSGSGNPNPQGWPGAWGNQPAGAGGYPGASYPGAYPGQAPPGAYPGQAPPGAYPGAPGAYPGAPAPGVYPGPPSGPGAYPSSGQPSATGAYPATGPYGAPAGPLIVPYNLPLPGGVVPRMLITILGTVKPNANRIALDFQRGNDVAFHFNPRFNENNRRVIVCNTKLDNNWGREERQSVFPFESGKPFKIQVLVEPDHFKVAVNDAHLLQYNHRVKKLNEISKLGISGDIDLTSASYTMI

Row | Compound | Mean fluorescence intensity, Galectin-3 (Galectin-3 [1]) | binding of Galectin-1 to the cells (in words) (Galectin-1 [2]; 2 μM 33DFTG) | Mean fluorescence intensity, Galectin-1 (Galectin-1 [2]; 2 μM 33DFTG for 3 days, Galectin-1 10 μg/ml, control treatment 439) | % alive (egg embryos; chicken, in vivo, 8 days) [%] | binding of Galectin-1 to the cells (in words) (Galectin-1 [3]; 2 μM 33DFTG) | Mean fluorescence intensity, Galectin-1 (Galectin-1 [3]; 2 μM 33DFTG for 2 days, control treatment 521) | Mean fluorescence intensity, Galectin-3 (Galectin-3 [4]) | Mean tumor size [5] [mg] | % alive (egg embryos; egg embryos at end of study, PBS control 81) [%] | tumor size / therapeutic efficacy compared to control group (in words) ([5]; repeated dose)
1 | OC[C@H]1O[C@@H](S[C@@H]2O[C@H](CO)[C@H](O)[C@H](n3cc(-c4cccc(F)c4)nn3)[C@H]2O)[C@H](O)[C@@H](n2cc(-c3cccc(F)c3)nn2)[C@H]1O [33DFTG, 3,3′-dideoxy-3,3′-bis-[4-(3-fluorophenyl)-1H-1,2,3-triazol-1-yl]-1,1′-sulfanediyl-di-β-D-galactopyranoside] | 165 | effective inhibition; also recorded: clearly decreased | 186 | 64 | effective inhibition; also recorded: clearly decreased | 226 | 129 | 35.8 | – | –
2 | Pembrolizumab: pembrolizumab (Keytruda, Merck) | – | – | – | – | – | – | – | 33.5 | 73 | neither pembrolizumab alone or 33DFTG alone showed significant difference
